Results on 3 compounds are retold here after patent US11292789B1 (priority 2020, dated 2022).

For series [1], the system named is 12-day-old cortical cell cultures. As to the kind of experiment: Nerve cell protection against excitotoxin damage, MTT assay. The format is cell-based. Particulars: for Cell viability from excitotoxin-induced neuron toxicity: cortical cell cultures pre-treated 1 hour, then glutamate, AMPA, NMDA, kinate, MTT after one day. Here is the method: Nerve cell protection ability was evaluated using Quinazole and MDPX-V2021 prepared according to Example 1 and MK-801 prepared according to Comparative Example 3.
To evaluate the neuroprotective activity of Quinazole, MDPX-V2021 and MK-801 against damage due to excitotoxin, each of the samples was dissolved in ethanol (final concentration, 0.1%), and a 12-day-old cortical cell cultures were used. The cultures were respectively pre-treated with the samples for 1 hour and then exposed to 20 μM glutamate, 80 μM α-amino-3-hydroxy-5-methyl-4-isoxazolepropionic acid, 40 μM N-Methyl-D-aspartic acid and 200 μM kinate. Next, each of the cultures was additionally cultured in neurobasal medium for one day, and the survival rate of the nerve cells was measured by MTT assay.
MTT tetrazolium (1 mg/mL) was added to neurons grown in 96-well plate, and then cultured at 37° C. for 1 hour. The reaction medium was carefully sucked, and then DMSO was added thereto to dissolve the blue formazan product. The survival rate of the nerve cells was estimated by quantifying an available formazan at 540 nm using a multi-mode plate reader. The test was repeated 3 times, and the cell viability was calculated according to 100×(excitotoxin OD+sample treatment-excitotoxin treatment OD)/(control OD-excitotoxin treatment OD).
(Tetrazolium assays rely on reduction of a dye to a coloured formazan, in cell work by metabolically active cells.)

The next series addresses α-glucosidase (Saccharomyces cerevisiae, UniProt P53341). In kind it is biochemical. The following applies: concentrations 0.01 to 0.25 mg/ml, FIG. 7.

Sequence of α-glucosidase (P53341 whole entry, looked up): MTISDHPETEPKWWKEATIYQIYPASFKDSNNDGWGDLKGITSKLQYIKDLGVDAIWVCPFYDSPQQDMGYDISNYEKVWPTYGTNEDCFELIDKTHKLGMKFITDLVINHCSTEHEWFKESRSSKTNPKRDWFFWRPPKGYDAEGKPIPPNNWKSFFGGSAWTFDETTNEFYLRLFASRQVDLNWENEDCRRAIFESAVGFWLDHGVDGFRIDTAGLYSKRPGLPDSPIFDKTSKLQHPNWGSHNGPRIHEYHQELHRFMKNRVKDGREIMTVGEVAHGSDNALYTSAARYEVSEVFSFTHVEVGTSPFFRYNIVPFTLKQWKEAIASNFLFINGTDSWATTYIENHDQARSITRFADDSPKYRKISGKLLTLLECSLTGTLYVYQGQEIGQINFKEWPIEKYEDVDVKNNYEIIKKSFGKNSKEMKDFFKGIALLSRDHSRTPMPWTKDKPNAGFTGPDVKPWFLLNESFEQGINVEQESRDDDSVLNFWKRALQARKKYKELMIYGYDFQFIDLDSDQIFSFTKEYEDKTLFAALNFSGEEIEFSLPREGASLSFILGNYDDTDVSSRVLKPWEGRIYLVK
Method for α-glucosidase: Next, 20 μl of P-NPG (5 mM) was added as a substrate and further incubated at 37° C. for 20 minutes. This reaction was stopped by adding 50 μl of Na2CO3 (0.1 M). […] Each experiment was performed three times. An inhibition rate (%) was evaluated using the following equation (inhibition (%)=[1−(sample/control)]×100).

In the case of `COc1ccc(-n2cnc3ccc(OC)cc3c2=O)c(COC(C)(C)C)c1` [MDPX-V2021, 3-{2-[(tert-butoxy)methyl]-4-methoxyphenyl}-6-methoxy-3,4-dihydroquinazolin-4-one], in series [1], the “Cell viability from excitotoxin-induced neuron toxicity” value came out at 84.083 ± 3.482%. Moreover, the “cell viability compared with Quinazole (in words)” value in series [1] (sample concentration range of 0.1 to 50 μM, FIG. 8) is on record as “significantly higher”. In addition, the “inhibitory activity against α-glucosidase (in words)” value at α-glucosidase is recorded as “has inhibitory activity against α-glucosidase”. `CC12NC(Cc3ccccc31)c1ccccc12` (centres unmarked) [MK-801, reference compound]: in series [1], the “Cell viability from excitotoxin-induced neuron toxicity” value stood at 78.830 ± 0.567%. On the same count and under the same terms, as for `COc1ccc(-n2cnc3ccc(OC)cc3c2=O)c(CO)c1` [Quinazol A, Dictyoquinazol A, reference compound], the figure is 68.910 ± 1.406%.
